Data published in US11034654B2, “2,3-dihydroisoindole-1-carboxamides useful as ROR-gamma modulators” (AstraZeneca AB, priority 2017, dated 2021).
pIC50: −log10 of the molar value.

Tests used:
[1] = molecular target: T1, RORγ ligand binding domain (Homo sapiens, UniProt P51449); assay: RORγ co-factor recruitment assay (FRET); type: biochemical; design: made in house; host or cells: E. coli BL21DE3 Star; conditions: inhibition of recruitment of SRC-1 peptide (NCOA1_677-700) to hRORγ LBD, HTRF read-out
In short: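 Inverse-agonist TR-FRET measuring biotinylated SRC-1 peptide (NCOA1 677-700, 160 nM in pre-mix) recruitment to E. coli-expressed biotinylated HN-Avi-MBP-TCS-hRORγ LBD (258-518; 100 nM in pre-mix), with Eu-streptavidin and streptavidin-APC, in MOPS pH 7.4 buffer, 1 h at rt. 665/612 nm ratio normalised to vehicle and reference control; IC50 from curve fit.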

[2] = molecular target: T1, RORγ ligand binding domain; assay: RORγ radioligand competition binding assay (SPA); conditions: competition with tritiated 2-(4-(ethylsulfonyl)phenyl)-N-(4-(2-(methoxymethyl)phenyl)thiophen-2-yl)acetamide (25 nM), hRORγ LBD
In short: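 SPA competition on E. coli-expressed N-6×HN-Avi-GST-TCS-hRORγ LBD (S258-K518), 4 nM on YOx glutathione beads, in 20 mM Tris, 150 mM NaCl, 10% glycerol, 0.25% CHAPS, 1 mM TCEP. Compound pre-incubation 1 h RT, then 25 nM tritiated tracer for 16 h. IC50 normalized to vehicle/reference controls; Ki = IC50/(1+[L]/Kd), Kd 17 nmol/L.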

[3] = system: human TH17 cells; assay: Inhibition of IL-17 release from human TH17 cells; type: cell-based; conditions: 96 h; isolated human TH17 cells cultured 4 days, IL-17A in supernatant by HTRF; read-out: pIC50 IL-17 release (converted)
Description: Inhibition of IL-17 Release from Human TH17 Cells
This test is designed to screen compounds for their inhibitory effect on the release of IL-17 from isolated and cultured human TH17 cells.
Peripheral blood mononuclear cells (PBMC) were isolated from heparin treated human whole blood from healthy donors by density gradient centrifugation. TH17 cells (CD4+CXCR3−CCR6+) were enriched using a human TH17 Cell Enrichment Kit (Stemcell Technologies) according to the manufacturer's protocol. The isolated TH17 cells were activated with aCD3aCD28 beads (MACS Miltenyi) and cultured in X-Vivo15 medium (Lonza) supplemented with L-glutamine, β-mercaptoethanol and a cytokine cocktail consisting of; IL-2, IL-23, IL-1β, IL-6, TGF-β. Cells were seeded at 8000 cells/well in a 384-plate (Corning, #3707) in the presence of compounds or DMSO and cultured for 4 days (37° C., 5% CO2). On day 4 supernatants were collected and IL-17A was measured using a Human IL-17 HTRF Assay kit (Cisbio Bioassays) according to the manufacturer's protocol. The IC50 values for the tested compounds was calculated using Genedata Screener® software (Genedata) using the following calculation method; Compound % effect=100*[(X−min)/(max−min)], where X represents the normalized value for the compound based on the Min (DMSO) and Max (compound 3-(1,3-benzodioxol-5-yl)-1-(3,5-dimethylpiperidin-1-yl)-3-(2-hydroxy-4,6-dimethoxyphenyl)propan-1-one at 10 μM, described in J. R. Hu et al. ACS Med. Chem. Lett. 2013, 4, 79-84) inhibition controls. Results

Compound: CC(=O)N1Cc2cc(S(C)(=O)=O)ccc2C1C(=O)Nc1ccc(C(CC(=O)NC(C)(C)C)(C(F)(F)F)C(F)(F)F)cc1 (stereo not drawn) [Example 43, 2-Acetyl-N-{4-[4-(tert-butylamino)-1,1,1-trifluoro-4-oxo-2-(trifluoromethyl)butan-2-yl]phenyl}-5-(methylsulfonyl)-2,3-dihydro-1H-isoindole-1-carboxamide]
- pIC50 [1]: 6.80
- pIC50 [2]: 6.10
- IC50 [3]: 251 nM

Compound: CC(=O)NCCC(c1ccc(NC(=O)C2c3ccc(S(C)(=O)=O)cc3CN2C(C)=O)cc1)(C(F)(F)F)C(F)(F)F (stereo not drawn) [Example 45, 2-Acetyl-N-{4-[4-(acetylamino)-1,1,1-trifluoro-2-(trifluoromethyl)butan-2-yl]phenyl}-5-(methylsulfonyl)-2,3-dihydro-1H-isoindole-1-carboxamide]
- pIC50 [1]: 6.70
- pIC50 [2]: 6.10
- IC50 [3]: 3160 nM
